Active and inactive are the calls of the source. How the calls were made is not given here.
test system: NF-kappaB luciferase reporter cells, doxorubicin-induced, luminescence; assay: inhibitors of doxorubicin-induced NF-kB reporter, SAR follow-up, cell-based, doxorubicin inducer, luciferase, set 2 (AID 2789)

IC50 | Structure (SMILES)
> 25 µM (inactive) | COCCn1c(SCCCc2ccccc2)nc2c1c(=O)[nH]c(=O)n2C
> 25 µM (inactive) | CCCCCn1c(SCCc2ccccc2)nc2c1c(=O)[nH]c(=O)n2C
> 25 µM (inactive) | C/C(Cl)=C\Cn1c(NCCc2ccccc2)nc2c1c(=O)n(C)c(=O)n2C
> 25 µM (inactive) | Cn1c(=O)[nH]c(=O)c2c1nc([N+](=O)[O-])n2Cc1ccccc1
> 25 µM (inactive) | CCCn1c(SCCc2ccccc2)nc2c1c(=O)[nH]c(=O)n2C
> 25 µM (inactive) | C/C=C/Cn1c(SCCCc2ccccc2)nc2c1c(=O)[nH]c(=O)n2C
> 25 µM (inactive) | C/C=C/Cn1c(SCc2ccccc2)nc2c1c(=O)[nH]c(=O)n2C
> 25 µM (inactive) | C/C=C/Cn1c(SCc2ccc(Cl)cc2)nc2c1c(=O)[nH]c(=O)n2C
> 25 µM (inactive) | CCCCn1c(SCC(=O)c2ccccc2)nc2c1c(=O)[nH]c(=O)n2C
> 25 µM (inactive) | Nc1nc2ccccc2n1CCOc1ccc(Cl)cc1
> 25 µM (inactive) | CCCn1c(SCC(=O)Nc2nc3c(s2)CCCC3)nc2c1c(=O)n(C)c(=O)n2C
> 25 µM (inactive) | CC(C)n1c(SCCCc2ccccc2)nc2c1c(=O)[nH]c(=O)n2C
> 25 µM (inactive) | CCCCn1c(SCC(=O)Nc2nnc(CC)s2)nc2c1c(=O)n(C)c(=O)n2C
> 25 µM (inactive) | CC(C)Sc1nc2c(c(=O)[nH]c(=O)n2C)n1Cc1ccccc1
> 25 µM (inactive) | C=CCn1c(SCCCc2ccccc2)nc2c1c(=O)[nH]c(=O)n2C

From PubChem BioAssay AID2789 (Sanford-Burnham Center for Chemical Genomics, 2010)
